Biological target: mitochondrial complex I (NADH:ubiquinone oxidoreductase) (Mus musculus, UniProt P03888+Q91WD5+Q9DC70)
Format: biochemical

CN(C)C(=N)N=C(N)N [metformin]
IC50: ~2 mM

From article PMC9623604 (European journal of pharmacology, 2022)
